Patent US20060106026A1, “4-(4-methylpiperazin-1-ylmethyl)-n-[4-pyridin-3-yl)pyrimidin-2-ylamino)phenyl]-benzamide for treating anaplastic thyroid cancer” (priority 2002, published 2006)
Several values for one entry are separate records, joined by “and”; a condition that tells them apart may be missing. Equal entries are not always repeated.

Columns and labels:
FRO = conditions: 10 μM of SALT I, 48 hours
Method: (§1) For flow cytometry analysis, cells were fixed with 70% ethanol and wash with PBS. After pre-incubation with RNase A (0.1 mg per ml) at room temperature, cells were stained with PI (25 μg per ml). Fluorescence was measured by using FACScan flow cytometer (Becton Dickinson, Mountain View, Calif.). This experiment was performed at least three times.

KTC-1 = conditions: KTC-1, 10 μM of SALT I, 48 hours
Method: as §1

ARO = conditions: 10 μM of SALT I
Method: as §1

1F3 = conditions: 1F3, 10 μM of SALT I, 48 hours
Method: as §1

SMILES: CS(=O)(=O)O.Cc1ccc(NC(=O)c2ccc(CN3CCN(C)CC3)cc2)cc1Nc1nccc(-c2cccnc2)n1 [SALT I]
- effect on cell cycle (arrest) (FRO): S-phase arrest
- percentage of cells in G2-M phase (FRO; DMSO 24.95): 15% and 14.98%
- percentage of cells in G1 phase (FRO; DMSO 32.16): 30.91%
- percentage of cells in S phase (FRO; DMSO 43.26): 54% and 54.11%
- effect on cell cycle (G2/M or S-phase changes) (KTC-1): No such changes were observed
- percentage of cells in S phase (KTC-1; DMSO 7.68): 6.53%
- percentage of cells in G2-M phase (KTC-1; DMSO 20.11): 18.7%
- percentage of cells in G1 phase (KTC-1; DMSO 72.2): 74.77%
- increase of the proportion of cells in G2/M-phase versus DMSO (ARO; 48 hours (9.28% vs. 3.78%)): increased more then two-fold
- percentage of cells in G2-M phase (ARO; 48 hours, DMSO 3.8): 9.28% and 9.3%
- percentage of cells in S phase (ARO; 48 hours, DMSO 19.7): 13.1%
- percentage of cells in G1 phase (ARO; 48 hours, DMSO 76.6): 77.6%
- effect on cell cycle (G2/M or S-phase changes) (1F3): No such changes were observed
- percentage of cells in S phase (1F3; DMSO 9.4): 9.1%
- percentage of cells in G2-M phase (1F3; DMSO 27.3): 20.4%
- percentage of cells in G1 phase (1F3; DMSO 63.3): 70.5%
